Experimental data as given in PMC7982320 (Pharmacology Research & Perspectives, 2021).
“Also recorded” adds a separate entry of the source.

Key:
human OCT2 = target: T1, human OCT2 (Homo sapiens, UniProt O15244); assay: Transporter inhibition, uptake assay; type: in vitro ADME
T1 sequence (O15244 1-555): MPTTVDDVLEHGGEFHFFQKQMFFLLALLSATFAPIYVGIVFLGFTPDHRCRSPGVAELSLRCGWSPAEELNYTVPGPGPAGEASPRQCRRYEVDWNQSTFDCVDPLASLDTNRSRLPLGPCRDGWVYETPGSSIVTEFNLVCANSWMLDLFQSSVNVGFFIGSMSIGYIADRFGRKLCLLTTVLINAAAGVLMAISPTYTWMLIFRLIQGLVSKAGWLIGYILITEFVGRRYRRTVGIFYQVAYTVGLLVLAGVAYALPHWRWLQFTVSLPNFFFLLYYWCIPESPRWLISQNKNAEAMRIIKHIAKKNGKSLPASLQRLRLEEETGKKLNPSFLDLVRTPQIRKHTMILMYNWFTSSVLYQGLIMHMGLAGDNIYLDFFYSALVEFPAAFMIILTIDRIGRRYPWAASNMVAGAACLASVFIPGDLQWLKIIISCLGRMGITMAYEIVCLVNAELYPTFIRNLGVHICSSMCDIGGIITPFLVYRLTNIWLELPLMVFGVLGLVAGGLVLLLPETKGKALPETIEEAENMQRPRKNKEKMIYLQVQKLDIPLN

human MATE1 = target: T2, human MATE1 (Homo sapiens, UniProt Q96FL8); assay: Transporter inhibition, uptake assay; type: in vitro ADME
T2 sequence (Q96FL8 1-570): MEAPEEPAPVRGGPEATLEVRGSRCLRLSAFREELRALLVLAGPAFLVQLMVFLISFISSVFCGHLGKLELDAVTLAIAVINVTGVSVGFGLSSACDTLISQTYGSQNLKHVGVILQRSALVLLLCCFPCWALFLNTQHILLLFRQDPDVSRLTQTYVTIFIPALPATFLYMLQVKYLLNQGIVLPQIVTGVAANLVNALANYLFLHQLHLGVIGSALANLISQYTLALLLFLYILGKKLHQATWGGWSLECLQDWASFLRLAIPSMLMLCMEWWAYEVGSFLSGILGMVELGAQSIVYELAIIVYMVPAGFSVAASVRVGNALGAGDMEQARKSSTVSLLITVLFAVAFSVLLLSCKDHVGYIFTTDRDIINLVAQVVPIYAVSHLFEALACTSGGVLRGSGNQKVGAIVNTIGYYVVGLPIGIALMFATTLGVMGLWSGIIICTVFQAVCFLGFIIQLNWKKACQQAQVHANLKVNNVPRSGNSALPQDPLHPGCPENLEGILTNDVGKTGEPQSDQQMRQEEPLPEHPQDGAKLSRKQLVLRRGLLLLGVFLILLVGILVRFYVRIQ

CYP2C19 = CYP2C19 (Homo sapiens, UniProt P33261); assay: CYP inhibition in pooled human liver microsomes, S-mephenytoin probe; type: in vitro ADME
human OATP1B1 = target: T3, human OATP1B1 (Homo sapiens, UniProt Q9Y6L6); assay: Transporter inhibition, uptake assay; type: in vitro ADME
T3 sequence (Q9Y6L6 1-691): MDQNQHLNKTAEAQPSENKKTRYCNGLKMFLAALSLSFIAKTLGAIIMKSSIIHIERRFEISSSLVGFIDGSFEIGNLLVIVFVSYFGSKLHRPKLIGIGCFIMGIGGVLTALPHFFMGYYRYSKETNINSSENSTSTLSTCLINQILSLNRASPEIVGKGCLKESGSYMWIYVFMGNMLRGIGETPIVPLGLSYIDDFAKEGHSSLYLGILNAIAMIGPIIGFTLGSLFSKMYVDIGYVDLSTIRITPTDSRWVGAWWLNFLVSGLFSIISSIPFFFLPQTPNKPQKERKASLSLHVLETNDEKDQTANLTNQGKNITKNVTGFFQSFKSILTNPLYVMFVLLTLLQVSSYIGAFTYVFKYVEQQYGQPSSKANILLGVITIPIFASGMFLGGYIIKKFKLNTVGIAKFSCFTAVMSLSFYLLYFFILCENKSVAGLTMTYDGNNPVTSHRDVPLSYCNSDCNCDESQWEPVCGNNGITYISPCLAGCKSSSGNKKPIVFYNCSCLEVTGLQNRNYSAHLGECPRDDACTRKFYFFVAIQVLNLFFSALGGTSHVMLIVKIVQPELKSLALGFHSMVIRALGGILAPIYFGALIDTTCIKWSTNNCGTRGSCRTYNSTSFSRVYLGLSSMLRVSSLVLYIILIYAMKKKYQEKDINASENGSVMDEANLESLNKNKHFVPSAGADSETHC

CYP2C8 = CYP2C8 (Homo sapiens, UniProt P10632); assay: CYP inhibition in pooled human liver microsomes, paclitaxel probe; type: in vitro ADME; details: read-out: IC50, No preincubation; CYP2C8, pooled HLMs, n = 3
CYP2C9 = CYP2C9 (Homo sapiens, UniProt P11712); assay: CYP inhibition in pooled human liver microsomes, diclofenac probe; type: in vitro ADME; details: read-out: IC50, No preincubation; CYP2C9, pooled HLMs, n = 3
[1] = combined DMD patient populations, DFZ 0.9 mg/kg/day; ref PTC internal data; cited from earlier work

CYP2C19, sequence (P33261 whole entry): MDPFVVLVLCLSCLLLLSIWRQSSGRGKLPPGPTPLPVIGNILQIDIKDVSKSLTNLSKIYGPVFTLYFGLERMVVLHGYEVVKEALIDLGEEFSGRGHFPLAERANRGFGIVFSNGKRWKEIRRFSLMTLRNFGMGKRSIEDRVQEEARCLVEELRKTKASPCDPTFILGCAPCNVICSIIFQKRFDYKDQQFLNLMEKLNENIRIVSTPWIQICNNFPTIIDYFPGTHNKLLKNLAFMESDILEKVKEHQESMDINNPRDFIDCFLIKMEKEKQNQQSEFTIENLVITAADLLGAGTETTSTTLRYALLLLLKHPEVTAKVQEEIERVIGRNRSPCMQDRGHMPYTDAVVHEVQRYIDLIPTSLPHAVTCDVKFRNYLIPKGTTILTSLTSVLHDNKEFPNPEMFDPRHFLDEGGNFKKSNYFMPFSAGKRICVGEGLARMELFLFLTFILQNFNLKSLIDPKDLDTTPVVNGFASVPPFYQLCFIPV
CYP2C8, sequence (P10632 whole entry): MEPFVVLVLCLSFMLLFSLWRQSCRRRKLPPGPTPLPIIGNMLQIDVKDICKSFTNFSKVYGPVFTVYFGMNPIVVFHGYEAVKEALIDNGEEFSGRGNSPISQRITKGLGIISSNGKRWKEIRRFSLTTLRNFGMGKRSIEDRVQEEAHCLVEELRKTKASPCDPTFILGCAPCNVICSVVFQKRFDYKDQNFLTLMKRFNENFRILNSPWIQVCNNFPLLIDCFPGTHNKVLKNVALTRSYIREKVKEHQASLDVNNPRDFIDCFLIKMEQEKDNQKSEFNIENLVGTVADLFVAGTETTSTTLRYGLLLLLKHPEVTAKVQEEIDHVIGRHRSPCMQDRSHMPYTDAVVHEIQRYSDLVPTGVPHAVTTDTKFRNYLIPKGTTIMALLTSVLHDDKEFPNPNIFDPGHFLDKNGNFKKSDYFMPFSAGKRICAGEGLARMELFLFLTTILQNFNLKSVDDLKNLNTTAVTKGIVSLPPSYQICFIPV
CYP2C9, sequence (P11712 whole entry): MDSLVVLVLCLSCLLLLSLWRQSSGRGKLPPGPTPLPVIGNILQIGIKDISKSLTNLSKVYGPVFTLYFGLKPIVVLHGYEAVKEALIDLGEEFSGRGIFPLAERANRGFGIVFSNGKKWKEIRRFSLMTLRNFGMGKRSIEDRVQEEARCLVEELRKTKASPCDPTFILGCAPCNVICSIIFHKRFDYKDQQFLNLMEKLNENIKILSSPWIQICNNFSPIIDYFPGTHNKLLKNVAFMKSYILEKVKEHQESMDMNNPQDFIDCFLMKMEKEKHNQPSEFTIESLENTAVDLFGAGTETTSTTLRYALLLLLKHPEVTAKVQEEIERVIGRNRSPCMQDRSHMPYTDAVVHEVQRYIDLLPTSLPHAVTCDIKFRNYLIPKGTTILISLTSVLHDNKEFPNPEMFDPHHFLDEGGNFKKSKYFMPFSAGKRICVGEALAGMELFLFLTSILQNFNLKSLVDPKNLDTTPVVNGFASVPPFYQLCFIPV

SMILES: CC1=N[C@]2(C(=O)CO)[C@@H](C[C@H]3[C@@H]4C[C@@H](O)C5=CC(=O)C=C[C@]5(C)[C@H]4[C@@H](O)C[C@@]32C)O1 [6β‐OH‐21‐desDFZ, 6β‐Hydroxy‐21‐desacetyl deflazacort]
- inhibitory interaction with transporter (human OCT2; OCT2, up to 50 µM): did not show interaction; also recorded: no inhibitory interaction
- Maximum inhibition at 50 µM (human OCT2; OCT2 UPT, n = 3): <20 % of control
- inhibitory interaction with transporter (human MATE1; MATE1, up to 50 µM): no inhibitory interaction
- Maximum inhibition at 50 µM (human MATE1; MATE1 UPT, n = 3): 26 % of control
- estimated plasma Cmax/IC50 ratio (CYP2C19; CYP2C19, Cmax 0.34 µM, assumed 100% free): 0.007
- IC50 (CYP2C19; read-out: IC50, No preincubation, CYP2C19, pooled HLMs, n = 3): ~50 µM
- estimated plasma Cmax/IC50 ratio (human OATP1B1; OATP1B1, Cmax 0.34 µM, assumed 100% free): 0.009
- Maximum inhibition at 50 µM (human OATP1B1; OATP1B1 UPT, n = 3): 67 % of control
- IC50 (human OATP1B1; OATP1B1 UPT, brackets: 95% confidence interval): 36.7 µM
- IC50 (CYP2C8): > 50 µM
- IC50 (CYP2C9): > 50 µM
- plasma Cmax at steady state, mean value [1]: 142 ng/mL
